Values after ≈ are worked out from the molar mass of the structure shown. “Also recorded” adds a separate entry of the source.
Experiments:
[1] = In vivo neuropharmacokinetic study, plasma and brain, intraperitoneal administration; parameters: species or system Sprague Dawley rats; conditions: rat; for AUC 0-36: brain; for availability in the brain (AUC0–36) higher after nanoemulsion compared to the solution: intraperitoneal administration
Description: The neuropharmacokinetic study was performed after intraperitoneal administration of the optimized nanoemulsion (NE4) or a 2 mg/mL GL-II-73 solution (solvent consisting of 14% (w/v) propylene glycol and 1% (w/v) polysorbate 80 in ultrapure water). Female Sprague Dawley rats, approximately two months old and weighing 160–200 g, were housed four per cage. The animal room was kept at a temperature of 22 ± 1 °C and a relative humidity of 40–70%. The alternation of light and darkness took place in a 12 h rhythm (light at 6:00 a.m.) with an illumination of 120 lx.
The test animals were divided into two groups of 27 rats each (3 animals per time point). One group received the GL-II-73 solution, the other group the GL-II-73 nanoemulsion, each at a dose of 10 mg/kg. At predefined intervals (5 min, 15 min, 30 min, 1 h, 2 h, 4 h, 8 h, 16 h, and 36 h), the animals were anesthetized with ketamine hydrochloride 90 mg/kg (Ketamidor, Richter Pharma AG, Vienna, Austria) and blood and brain samples were taken. Blood was collected by cardiac puncture with heparinized syringes and centrifuged at 1000× g for 10 min (MiniSpin® plus centrifuge, Eppendorf, Hamburg, Germany) to separate plasma. The isolated brains were weighed and homogenized in 1 mL methanol using an ultrasonic probe. The homogenized brain samples were subsequently centrifuged at 3400× g for 20 min to collect the supernatants. Plasma and the supernatants of the brain homogenates were further purified by solid phase extraction using Oasis HLB cartridges (Waters Corporation, Milford, MA, USA). The cartridges were preconditioned with methanol and then with water prior to application of the sample and internal standard. […] The concentration of GL-II-73 and its metabolite MP-III-022 was quantified in the eluates by liquid chromatography–tandem mass spectrometry (LC-MS/MS).

[2] = tested on: in vitro model of the blood–brain barrier based on human induced pluripotent stem cell-derived microvascular endothelial cells, astrocytes, and pericytes; assay: In vitro BBB permeability test (iCell Blood-Brain Barrier Kit, tricellular model); type: in vitro ADME; conditions: Pe of nanoemulsion vs solution
Description: The iCell® Blood-Brain Barrier Kit (FUJIFILM Cellular Dynamics, Inc., Madison, WI, USA) contained the following: iCell Astrocytes, iCell BMEC (Brain Microvascular Enothelial Cells), iCell Pericytes, iCell Astrocytes & iCell Pericytes Medium, iCell BMEC Maintenance Medium, and iCell Plating Supplement 500×. […]
The iCell® Blood-Brain Barrier Kit (FUJIFILM Cellular Dynamics, Madison, WI, USA) contained astrocytes, pericytes, and brain microvascular endothelial cells. […] For comparison, the contribution of the carrier itself was evaluated using a GL-II-73 solution in ultrapure water.
The transendothelial electrical resistance (TEER) parameter was used to verify the integrity of the barrier. […] The measured TEER values were corrected with TEER values from wells with empty filters and the medium. The final TEER values (Ω × cm^2) were calculated by adjusting the corrected TEER values to the filter surface. […] For this purpose, 100 µL was taken from the basolateral side (containing 1 mL iCell Maintenance Medium) to be analyzed by LC/MS-MS. […]
The Pe parameter (permeability coefficient; cm/min) was calculated as described earlier [19, 20] and used to evaluate the rate and the effectiveness of GL-II-73 transport through the BBB. […]
The Pe value was determined by dividing the Pse values by the surface area of the membrane of the insert (cm^2).

[3] = Solubility of GL-II-73 in various media, shake flask method; type: physicochemical; conditions: thermodynamic from solid
Description: The solubility of GL-II-73 was investigated in various media using the shake flask method. In brief, GL-II-73 was added in excess and mixed overnight on the vortex, followed by centrifugation to remove any excess of undissolved drug. The supernatants were then diluted in methanol and GL-II-73 content was determined by the LC/MS-MS method.
A liquid chromatographic system, the Accela 1000 (Thermo Fisher Scientific, San Jose, CA, USA), which includes a quaternary pump and an autosampler, was used for chromatographic analyses. All runs were performed with an XTERRA® MS C18 column (150 mm × 2.1 mm, 3.5 µm; Waters, Dublin, Ireland) maintained at 25 °C. Samples were stored in the autosampler temperature-controlled compartment at 8 °C. Isocratic elution was performed with a mixture of acetonitrile and 0.1% aqueous formic acid (60:40, v/v) at a flow rate of 300 µL/min. The total analysis time was 4.5 min. Mass spectrometric analyses were performed using a TSQ Quantum Access MAX (Thermo Fisher Scientific, Waltham, MA, USA) triple-quadrupole spectrometer equipped with a heated electrospray ionization (HESI) source. Operating conditions of the MS were optimized as follows: the spray voltage was set to 4000 V, with a skimmer offset of 0 V; the evaporator and capillary temperatures were set to 350 °C and 300 °C, respectively; nitrogen was used as both the nebulizer and auxiliary gas, with flow rates of 50 and 10 arbitrary units, respectively; and the collision gas pressure in q2 was maintained at 1.4 mTorr of argon. Data acquisition was performed with Selected Reaction Monitoring (SRM) in positive scan mode. The [M + H]^+ transitions m/z of SRM were 387.2 → 342.2 (CE 21 V), 373.1 → 314.0 (CE 29 V), and 347.0 → 302.0 (CE 28 V) for GL-II-73, MP-III-022, and SHI-I-048A (as internal standard), respectively. The Thermo Xcalibur 2.1 software was used for data acquisition.

C#Cc1ccc2c(c1)C(c1ccccc1F)=N[C@H](C)c1c(C(=O)NC)ncn1-2 [MP-III-022]
AUC 0-36 ([1]; metabolite MP-III-022 after 10 mg/kg GL-II-73 nanoemulsion NE4 i.p.): 167.36 ± 70.56 ng·h/g
AUC 0-36 ([1]; metabolite MP-III-022 after 10 mg/kg GL-II-73 solution i.p.): 103.75 ± 2.05 ng·h/g
availability in the brain (AUC0–36) higher after nanoemulsion compared to the solution [1]: 61%

C#Cc1ccc2c(c1)C(c1ccccc1F)=N[C@H](C)c1c(C(=O)N(C)C)ncn1-2 [GL-II-73]
availability in the brain (AUC0–36) higher after nanoemulsion compared to the solution [1]: 24%
sum of brain AUC0-36 values for the parent molecule and its metabolite, nanoformulation compared to the solution ([1]; systemic administration): one-third higher
Permeability of GL-II-73 through the BBB, nanoemulsion relative to solution [2]: twice as high; also recorded: more than twofold higher
solubility ([3]; MCT, oil or lipid): 4.49 ± 0.148 mg/mL (≈ 11.6 mM)
solubility ([3]; aqueous buffer, Phosphate buffer (pH 7.4)): 0.951 ± 0.0414 mg/mL (≈ 2.46 mM)
solubility ([3]; benzyl alcohol, organic solvent or mixture): > 534 mg/mL
solubility ([3]; castor oil, oil or lipid): 2.82 ± 0.184 mg/mL (≈ 7.3 mM)
solubility ([3]; fish oil, oil or lipid): 2.4 ± 0.331 mg/mL (≈ 6.2 mM)
solubility ([3]; isopropanol, organic solvent or mixture): 131 mg/mL (≈ 339 mM)
solubility ([3]; methanol, organic solvent or mixture): > 1470 mg/mL
solubility ([3]; simulated gastric fluid, 0.1 M HCl (pH 1.2)): 5.37 ± 0.195 mg/mL (≈ 13.9 mM)
solubility ([3]; soybean oil, oil or lipid): 3.06 ± 0.137 mg/mL (≈ 7.91 mM)
solubility ([3]; Water (pH 5.2)): 1 ± 0.0399 mg/mL (≈ 2.59 mM)
